From patent publication US9403820B2, “Kinase inhibitor polymorphs” (INTELLIKINE LLC, priority 2011, dated 2016)
Counter-ions that a name gives are not always drawn.

Legend:
Format in all cases: physicochemical
[1] = Solid form stability on vacuum drying (XRPD)
Protocol: HCl Pattern 1: Formula I free base (ca. 500 mg) was suspended in nitromethane (50 volumes, 25 mL) with stirring. HCl (1M in THF; 1.2 equivalents; 1.65 mL) was added. The suspension was subjected to heating/cooling cycles between RT and 50° C., 4 hours at each condition for one week. […] The solid was isolated by vacuum filtration and dried under vacuum at RT for 16 hours.

[2] = VH-XRPD (variable humidity XRPD) form stability
From the text: Variable humidity XRPD analysis was undertaken in order to determine if two hydrated species were present. […] On increasing the humidity, the material started to re-hydrate from 13% RH, and reverted completely back to HCl Pattern 2 by 45% RH. […] Only one XRPD pattern was observed upon dehydration and it is not possible to conclude whether this is a totally anhydrous or partially hydrated form.

[3] = Stability at 40° C./75% RH (XRPD after storage); details: 3 weeks storage, by XRPD
[4] = GVS (gravimetric vapor sorption) moisture sorption isotherm
Protocol: Sorption isotherms were obtained using a SMS DVS Intrinsic moisture sorption analyser, controlled by DVS Intrinsic Control software v1.0.0.30. The sample temperature was maintained at 25° C. by the instrument controls. The humidity was controlled by mixing streams of dry and wet nitrogen, with a total flow rate of 200 mL.min−1 The relative humidity was measured by a calibrated Rotronic probe (dynamic range of 1.0-100% RH), located near the sample. The weight change (mass relaxation) of the sample as a function of % RH was constantly monitored by the microbalance (accuracy±0.005 mg). Approximately 5-20 mg of sample was placed in a tared mesh stainless steel basket under ambient conditions. The sample was loaded and unloaded at 40% RH and 25° C. (typical room conditions). A moisture sorption isotherm was performed as outlined below (2 scans giving 1 complete cycle). The standard isotherm was performed at 25° C. at 10% RH intervals over a 0-90% RH range. Data analysis was undertaken in Microsoft Excel using DVS Analysis Suite v6.0.0.7.

| Form stability on drying under vacuum at RT for 16 hours (XRPD) [1] | VH-XRPD: RH to which the form is stable ([2]; then starts to change to HCl Pattern 3) [% RH] | GVS: RH to which the form appeared stable ([4]; dehydration observed below, rehydration by 40%) [% RH] | GVS water content at the end of the experiment ([4]; end of GVS experiment) [wt %] | GVS water content at the end of the experiment, equivalents ([4]; end of GVS experiment) [eqs] | SMILES | VH-XRPD: RH below which the material starts to change ([2]; full conversion to HCl Pattern 3 at 0.5% RH) | Stability at 40° C./75% RH [3] | GVS reversible uptake ([4]; between 40-90% RH, 25° C.) |
| --- | --- | --- | --- | --- | --- | --- | --- | --- |
| partially reverted to the free base |  |  |  |  | Nc1nc2cc(-c3ccc4ncc(C(=O)N5CCOCC5)n4c3)ccc2o1 [HCl Pattern 1] |  |  |  |
|  | ≥ 14 | ≥ 30 | 10.6 | 3.0 | Nc1nc2cc(-c3ccc4ncc(C(=O)N5CCOCC5)n4c3)ccc2o1 [HCl Pattern 2] | The material starts to change below 25% RH, with full conversion to HCl | No significant changes observed by XRPD after 3 weeks storage | Reversible uptake of ca. 6 wt % between 40-90% RH. |
